Experimental data: patent US9260438B2, “Solid forms of tofacitinib salts” (APOTEX INC., priority 2014, dated 2016)
Counter-ions that a name gives are not always drawn.

Experiments:
[1] = physchem; details: thermodynamic from solid
[2] = Solubility of solid forms in water (visual dissolution); details: deionized water added drop-wise with agitation until visual dissolution of the solid; hydrochloride

SMILES	Solubility [2] [mg/mL]	also measured
C[C@@H]1CCN(C(=O)CC#N)C[C@@H]1N(C)c1ncnc2[nH]ccc12.O=C(O)CC(O)(CC(=O)O)C(=O)O [Tofacitinib citrate, 3-{(3R,4R)-4-methyl-3-[methyl-(7H-pyrrolo[2,3-d]pyrimidin-4-yl)-amino]-piperidin-1-yl}-3-oxo-propionitrile mono-citrate salt, reference compound]		Solubility ([1]; water): ~2 mg/mL
C[C@@H]1CCN(C(=O)CC#N)C[C@@H]1N(C)c1ncnc2[nH]ccc12 [Tofacitinib hydrochloride (APO-A), tofacitinib hydrochloride]		Solubility ([1]; deionized water): 2500 mg/mL
C[C@@H]1CCN(C(=O)CC#N)C[C@@H]1N(C)c1ncnc2[nH]ccc12 [Tofacitinib hydrochloride (APO-B), tofacitinib hydrochloride]	2294	
C[C@@H]1CCN(C(=O)CC#N)C[C@@H]1N(C)c1ncnc2[nH]ccc12 [Tofacitinib hydrochloride (APO-C), tofacitinib hydrochloride]	2235	
C[C@@H]1CCN(C(=O)CC#N)C[C@@H]1N(C)c1ncnc2[nH]ccc12 [Tofacitinib hydrochloride (APO-D), tofacitinib hydrochloride]	2145	
C[C@@H]1CCN(C(=O)CC#N)C[C@@H]1N(C)c1ncnc2[nH]ccc12 [Tofacitinib hydrochloride (APO-E), tofacitinib hydrochloride]	2235	
C[C@@H]1CCN(C(=O)CC#N)C[C@@H]1N(C)c1ncnc2[nH]ccc12 [Tofacitinib hydrochloride (APO-G), tofacitinib hydrochloride]	2000	
